# Patent publication US11919901B2 (Syndax Pharmaceuticals, Inc., priority 2021, dated 2024)
# Assays:
# [1] = target: hERG (Homo sapiens (Human), UniProt Q12809); assay: Patch clamp assay (hERG tail currents, whole-cell); format: cell-based; conditions: hERG transfected HEK 293 cells; for hERG % Remaining 30 μM: 30 μM compound; for hERG % Remaining 10 μM: 10 μM compound; for hERG % Remaining 1 μM: 1 μM compound; for hERG % Remaining 3 μM: 3 μM compound; for hERG % Remaining 100 μM: 100 μM compound
# [2] = target: Menin-MLL (Homo sapiens (Human), UniProt O00255); assay: Determination of binding constants (Ki) to Menin-MLL (HTRF); conditions: HTRF, 0.25 nM H-FL-Menin, 3.2 nM FITC-MLL-4-43, 24 hr incubation; for Ki: read-out: Menin-MLL Ki HTRF Assay: Ki
# Sequence of Menin-MLL (O00255 whole entry): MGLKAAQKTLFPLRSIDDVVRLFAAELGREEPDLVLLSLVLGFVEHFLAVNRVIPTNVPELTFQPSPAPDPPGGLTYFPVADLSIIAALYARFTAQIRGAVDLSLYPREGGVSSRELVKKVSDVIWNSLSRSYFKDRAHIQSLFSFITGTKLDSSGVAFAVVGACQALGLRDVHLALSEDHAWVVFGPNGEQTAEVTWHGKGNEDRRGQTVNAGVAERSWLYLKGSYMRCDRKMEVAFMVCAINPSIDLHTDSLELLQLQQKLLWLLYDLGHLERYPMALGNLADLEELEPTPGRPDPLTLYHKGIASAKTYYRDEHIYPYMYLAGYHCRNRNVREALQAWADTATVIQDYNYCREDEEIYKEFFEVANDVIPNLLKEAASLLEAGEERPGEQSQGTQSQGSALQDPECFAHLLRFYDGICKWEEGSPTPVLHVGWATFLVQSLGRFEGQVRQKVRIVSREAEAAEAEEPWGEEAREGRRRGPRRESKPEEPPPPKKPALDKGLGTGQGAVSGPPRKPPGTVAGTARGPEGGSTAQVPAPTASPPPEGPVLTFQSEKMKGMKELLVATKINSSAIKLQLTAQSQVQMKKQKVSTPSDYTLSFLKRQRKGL
# Sequence of hERG (Q12809 whole entry): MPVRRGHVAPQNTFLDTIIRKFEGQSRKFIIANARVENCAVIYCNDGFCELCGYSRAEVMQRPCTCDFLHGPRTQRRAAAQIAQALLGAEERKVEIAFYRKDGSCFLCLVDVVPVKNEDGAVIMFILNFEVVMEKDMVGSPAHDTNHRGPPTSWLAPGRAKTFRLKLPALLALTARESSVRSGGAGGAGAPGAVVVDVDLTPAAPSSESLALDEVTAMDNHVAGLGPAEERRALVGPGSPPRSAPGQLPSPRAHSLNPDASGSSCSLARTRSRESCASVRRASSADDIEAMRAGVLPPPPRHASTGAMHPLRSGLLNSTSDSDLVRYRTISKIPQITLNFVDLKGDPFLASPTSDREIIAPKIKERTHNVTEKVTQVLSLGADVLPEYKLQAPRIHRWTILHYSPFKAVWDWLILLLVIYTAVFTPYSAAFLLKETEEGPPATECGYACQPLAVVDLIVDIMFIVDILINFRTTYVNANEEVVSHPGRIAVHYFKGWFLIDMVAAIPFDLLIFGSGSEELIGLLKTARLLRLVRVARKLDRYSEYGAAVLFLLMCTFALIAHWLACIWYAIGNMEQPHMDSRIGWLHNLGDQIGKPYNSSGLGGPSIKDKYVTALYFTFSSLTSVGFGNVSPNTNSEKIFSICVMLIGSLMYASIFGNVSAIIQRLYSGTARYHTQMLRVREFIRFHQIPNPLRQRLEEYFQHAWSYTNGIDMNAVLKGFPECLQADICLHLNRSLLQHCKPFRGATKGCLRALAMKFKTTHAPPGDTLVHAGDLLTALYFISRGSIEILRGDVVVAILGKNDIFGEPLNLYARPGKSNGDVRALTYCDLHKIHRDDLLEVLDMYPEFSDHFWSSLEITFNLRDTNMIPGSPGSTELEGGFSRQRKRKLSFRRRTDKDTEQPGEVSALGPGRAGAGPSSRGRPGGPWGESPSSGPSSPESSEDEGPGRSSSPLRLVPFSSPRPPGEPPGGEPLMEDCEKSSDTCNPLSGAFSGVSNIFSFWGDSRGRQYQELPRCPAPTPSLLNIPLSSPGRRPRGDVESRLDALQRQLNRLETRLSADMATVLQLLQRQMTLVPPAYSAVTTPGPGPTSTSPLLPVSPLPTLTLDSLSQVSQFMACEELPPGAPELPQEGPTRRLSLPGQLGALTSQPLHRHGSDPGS
SMILES,hERG % Remaining 30 μM [1],IC50 [1] [nM],Ki [2] [nM],hERG % Remaining 10 μM [1],EC50 [2] [nM],hERG % Remaining 1 μM [1],hERG % Remaining 3 μM [1],hERG % Remaining 100 μM [1]
"CCNS(=O)(=O)N[C@@H]1CC[C@@H](CN2CCC3(CC2)CN(c2ncnnc2Oc2ccc(F)cc2C(=O)N(CC(F)(F)F)C(C)C)C3)OC1 (single isomer, unassigned) [Compound 193]",+++ (“+++” means ≥66%),≥ 50000,< 1,,,,,
"CCN(C(=O)c1cc(F)ccc1Oc1cncnc1N1CC2(CCN(C[C@@H]3CC[C@@H](NS(C)(=O)=O)CO3)CC2)C1)C(C)C [Compound 1, N-ethyl-5-fluoro-N-isopropyl-2-((4-(7-(((2S,5R)-5-(methylsulfonamido)tetrahydro-2H-pyran-2-yl)methyl)-2,7-diazaspiro[3.5]nonan-2-yl)pyrimidin-5-yl)oxy)benzamide]",++ (“++” means ≥33% and <66%),,< 1,+++ (“+++” means ≥66%),< 50,,,
"CCN(C(=O)c1cc(F)ccc1Oc1cncnc1N1CC2(CCN(C[C@@H]3CC[C@@H](NS(=O)(=O)CC)CO3)CC2)C1)C(C)C [Compound 2, N-ethyl-2-((4-(7-(((2S,5R)-5-(ethylsulfonamido)tetrahydro-2H-pyran-2-yl)methyl)-2,7-diazaspiro[3.5]nonan-2-yl)pyrimidin-5-yl)oxy)-5-fluoro-N-isopropylbenzamide]",+++ (“+++” means ≥66%),,< 1,+++ (“+++” means ≥66%),< 50,,,
"CCN(C(=O)c1cc(F)ccc1Oc1cncnc1N1CC2(CCN(C[C@@H]3CC[C@@H](NS(=O)(=O)C4CC4)CO3)CC2)C1)C(C)C [Compound 4, 2-((4-(7-(((2S,5R)-5-(cyclopropanesulfonamido)tetrahydro-2H-pyran-2-yl)methyl)-2,7-diazaspiro[3.5]nonan-2-yl)pyrimidin-5-yl)oxy)-N-ethyl-5-fluoro-N-isopropylbenzamide]",+++ (“+++” means ≥66%),≥ 50000,< 1,+++ (“+++” means ≥66%),< 50,,,
"CCN(C(=O)c1cc(F)ccc1Oc1cncnc1N1CC2(CCN(C[C@@H]3CC[C@@H](NS(=O)(=O)C4CCC4)CO3)CC2)C1)C(C)C [Compound 6, 2-((4-(7-(((2S,5R)-5-(cyclobutanesulfonamido)tetrahydro-2H-pyran-2-yl)methyl)-2,7-diazaspiro[3.5]nonan-2-yl)pyrimidin-5-yl)oxy)-N-ethyl-5-fluoro-N-isopropylbenzamide]",++ (“++” means ≥33% and <66%),,< 1,+++ (“+++” means ≥66%),< 50,,,
"CCN(C(=O)c1cc(F)ccc1Oc1cncnc1N1CC2(CCN(C[C@@H]3CC[C@@H](NC(=O)OC(C)(C)C)CO3)CC2)C1)C(C)C [Compound 11, tert-butyl ((3R,6S)-6-((2-(5-(2-(ethyl(isopropyl)carbamoyl)-4-fluorophenoxy)pyrimidin-4-yl)-2,7-diazaspiro[3.5]nonan-7-yl)methyl)tetrahydro-2H-pyran-3-yl)carbamate]",+ (“+” means <33%),,< 1,+ (“+” means <33%),< 50,,,
"CC(C)N(C(=O)c1cc(F)ccc1Oc1cncnc1N1CC2(CCN(C[C@@H]3CC[C@@H](NS(C)(=O)=O)CO3)CC2)C1)C(C)C [Compound 12, 5-fluoro-N,N-diisopropyl-2-((4-(7-(((2S,5R)-5-(methylsulfonamido)tetrahydro-2H-pyran-2-yl)methyl)-2,7-diazaspiro[3.5]nonan-2-yl)pyrimidin-5-yl)oxy)benzamide]",+++ (“+++” means ≥66%),≥ 50000,< 1,+++ (“+++” means ≥66%),< 50,+++ (“+++” means ≥66%),+++ (“+++” means ≥66%),++ (“++” means ≥33% and <66%)
"CCS(=O)(=O)N[C@@H]1CC[C@@H](CN2CCC3(CC2)CN(c2ncncc2Oc2ccc(F)cc2C(=O)N(C(C)C)C(C)C)C3)OC1 [Compound 13, 2-((4-(7-(((2S,5R)-5-(ethylsulfonamido)tetrahydro-2H-pyran-2-yl)methyl)-2,7-diazaspiro[3.5]nonan-2-yl)pyrimidin-5-yl)oxy)-5-fluoro-N,N-diisopropylbenzamide]",++ (“++” means ≥33% and <66%),≥ 50000,< 1,+++ (“+++” means ≥66%),< 50,+++ (“+++” means ≥66%),+++ (“+++” means ≥66%),++ (“++” means ≥33% and <66%)
"CC(C)N(C(=O)c1cc(F)ccc1Oc1cncnc1N1CC2(CCN(C[C@@H]3CC[C@@H](NS(=O)(=O)C(C)C)CO3)CC2)C1)C(C)C [Compound 14, 5-fluoro-N,N-diisopropyl-2-((4-(7-(((2S,5R)-5-((1-methylethyl)sulfonamido)tetrahydro-2H-pyran-2-yl)methyl)-2,7-diazaspiro[3.5]nonan-2-yl)pyrimidin-5-yl)oxy)benzamide]",++ (“++” means ≥33% and <66%),25000 to 50000,< 1,+++ (“+++” means ≥66%),< 50,,+++ (“+++” means ≥66%),+ (“+” means <33%)
"CC(C)N(C(=O)c1cc(F)ccc1Oc1cncnc1N1CC2(CCN(C[C@@H]3CC[C@@H](NS(=O)(=O)C4CC4)CO3)CC2)C1)C(C)C [Compound 15, 2-((4-(7-(((2S,5R)-5-(cyclopropanesulfonamido)tetrahydro-2H-pyran-2-yl)methyl)-2,7-diazaspiro[3.5]nonan-2-yl)pyrimidin-5-yl)oxy)-5-fluoro-N,N-diisopropylbenzamide]",++ (“++” means ≥33% and <66%),25000 to 50000,< 1,+++ (“+++” means ≥66%),< 50,,+++ (“+++” means ≥66%),+ (“+” means <33%)
"CC(C)N(C(=O)c1cc(F)ccc1Oc1cncnc1N1CC2(CCN(C[C@@H]3CC[C@@H](NS(=O)(=O)C4COC4)CO3)CC2)C1)C(C)C [Compound 16, 5-fluoro-N,N-diisopropyl-2-((4-(7-(((2S,5R)-5-(oxetane-3-sulfonamido)tetrahydro-2H-pyran-2-yl)methyl)-2,7-diazaspiro[3.5]nonan-2-yl)pyrimidin-5-yl)oxy)benzamide]",+++ (“+++” means ≥66%),,< 1,+++ (“+++” means ≥66%),< 50,,,
"CCS(=O)(=O)N[C@@H]1CC[C@@H](CN2CCC3(CC2)CN(c2ncncc2Oc2ccc(F)cc2C(=O)N(C(C)C)C2CC2)C3)OC1 [Compound 19, N-cyclopropyl-2-((4-(7-(((2S,5R)-5-(ethylsulfonamido)tetrahydro-2H-pyran-2-yl)methyl)-2,7-diazaspiro[3.5]nonan-2-yl)pyrimidin-5-yl)oxy)-5-fluoro-N-isopropylbenzamide]",++ (“++” means ≥33% and <66%),,< 1,+++ (“+++” means ≥66%),< 50,,,
"CC(C)N(C(=O)c1cc(F)ccc1Oc1cncnc1N1CC2(CCN(C[C@@H]3CC[C@@H](NS(=O)(=O)C4CC4)CO3)CC2)C1)C1CC1 [Compound 21, 2-((4-(7-(((2S,5R)-5-(cyclopropanesulfonamido)tetrahydro-2H-pyran-2-yl)methyl)-2,7-diazaspiro[3.5]nonan-2-yl)pyrimidin-5-yl)oxy)-N-cyclopropyl-5-fluoro-N-isopropylbenzamide]",+ (“+” means <33%),,< 1,++ (“++” means ≥33% and <66%),< 50,,,
"CCS(=O)(=O)N[C@@H]1CC[C@@H](CN2CCC3(CC2)CN(c2ncncc2Oc2ccc(F)cc2C(=O)N(C(C)C)[C@H]2CCOC2)C3)OC1 [Compound 33, 2-((4-(7-(((2S,5R)-5-(ethylsulfonamido)tetrahydro-2H-pyran-2-yl)methyl)-2,7-diazaspiro[3.5]nonan-2-yl)pyrimidin-5-yl)oxy)-5-fluoro-N-isopropyl-N-((S)-tetrahydrofuran-3-yl)benzamide]",+++ (“+++” means ≥66%),,< 1,+++ (“+++” means ≥66%),< 50,,,
"CCS(=O)(=O)N[C@@H]1CC[C@@H](CN2CCC3(CC2)CN(c2ncncc2Oc2ccc(F)cc2C(=O)N(CC(F)F)C(C)C)C3)OC1 [Compound 34, N-(2,2-difluoroethyl)-2-((4-(7-(((2S,5R)-5-(ethylsulfonamido)tetrahydro-2H-pyran-2-yl)methyl)-2,7-diazaspiro[3.5]nonan-2-yl)pyrimidin-5-yl)oxy)-5-fluoro-N-isopropylbenzamide]",++ (“++” means ≥33% and <66%),25000 to 50000,< 1,+++ (“+++” means ≥66%),< 50,+++ (“+++” means ≥66%),+++ (“+++” means ≥66%),+ (“+” means <33%)
CCN(C(=O)c1cc(F)ccc1Oc1cncnc1N1CC2(CCN(C[C@H]3CC[C@H](NS(=O)(=O)CC)CC3)CC2)C1)C(C)C [SNDX-5613],++ (“++” means ≥33% and <66%),< 25000,,++ (“++” means ≥33% and <66%),,+++ (“+++” means ≥66%),+++ (“+++” means ≥66%),+ (“+” means <33%)
